Results reported in patent US8629157B2, “Pyrrolidine compounds which modulate the CB2 receptor” (Boehringer Ingelheim International GmbH, priority 2009, dated 2014).

Each molecule was assayed against human CB2R (Homo sapiens, UniProt P34972) (assay: CB2R mediated modulation of cAMP synthesis). Conditions: not given.
Type: cell-based
Description: B. CB2R Mediated Modulation of cAMP Synthesis:
Compounds of the invention were evaluated for their CB2 agonist or inverse agonistic activity in accordance with the following experimental method.
CHO cells expressing human CB2R (Euroscreen) were plated at a density of 5000 cells per well in 384 well plates and incubated overnight at 37° C. After removing the media, the cells were treated with test compounds diluted in stimulation buffer containing 1 mM IBMX, 0.25% BSA and 10 uM Forskolin. The assay was incubated for 30 minutes at 37° C. Cells were lysed and the cAMP concentration was measured using DiscoverX-XS cAMP kit, following the manufacturer's protocol. In this setting, agonists will decrease forskolin induced production of cAMP while inverse agonists will further increase forskolin induced production of cAMP. EC50 of agonists were calculated as follows. The maximal amount of cAMP produced by forskolin compared to the level of cAMP inhibited by 1 uM CP55940 is defined as 100%. […] Data was analyzed using a four-parameter logistic model. (Model 205 of XLfit 4.0).

human CB2R, sequence (P34972 whole entry): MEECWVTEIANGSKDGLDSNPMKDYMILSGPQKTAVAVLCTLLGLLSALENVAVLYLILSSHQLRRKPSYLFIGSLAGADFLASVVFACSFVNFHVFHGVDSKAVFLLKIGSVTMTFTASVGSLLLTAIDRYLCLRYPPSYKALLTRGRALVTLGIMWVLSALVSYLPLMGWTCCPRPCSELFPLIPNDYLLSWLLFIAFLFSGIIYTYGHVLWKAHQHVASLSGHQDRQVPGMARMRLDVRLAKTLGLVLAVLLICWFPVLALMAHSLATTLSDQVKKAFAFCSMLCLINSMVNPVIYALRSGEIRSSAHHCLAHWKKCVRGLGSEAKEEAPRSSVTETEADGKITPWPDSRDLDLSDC

| SMILES | EC50 [nM] |
| --- | --- |
| CCc1sc(NC(=O)[C@@H]2C[C@@H](O)CN2CC2CCOCC2)nc1-c1ccccc1 [(2S,4R)-4-Hydroxy-1-(tetrahydro-pyran-4-ylmethyl)-pyrrolidine-2-carboxylic acid (5-ethyl-4-phenyl-thiazol-2-yl)-amide] | 7.93 |
| CC(C)(C)c1nnc(NC(=O)[C@@H]2C[C@@H](O)CN2CC2CCOCC2)s1 [(2S,4R)-4-Hydroxy-1-(tetrahydro-pyran-4-ylmethyl)-pyrrolidine-2-carboxylic acid (5-tert-butyl-1,3,4-thiadiazol-2-yl)-amide] | 69.8 |
| CC(C)(C)c1cc(NC(=O)[C@@H]2C[C@@H](O)CN2CC2CCOCC2)no1 [(2S,4R)-4-Hydroxy-1-(tetrahydro-pyran-4-ylmethyl)-pyrrolidine-2-carboxylic acid (5-tert-butyl-isoxazol-3-yl)-amide] | 3.89 |
| O=C(Nc1nc(-c2ccc(Cl)cc2)cs1)[C@@H]1C[C@@H](O)CN1CC1CCOCC1 [(2S,4R)-4-Hydroxy-1-(tetrahydro-pyran-4-ylmethyl)-pyrrolidine-2-carboxylic acid [4-(4-chloro-phenyl)-thiazol-2-yl]-amide] | 71.2 |
| CC(C)(C)c1cc(NC(=O)[C@@H]2C[C@H](O)CN2c2ncc(C(F)(F)F)cc2Cl)no1 [(2S,4S)-1-(3-Chloro-5-trifluoromethyl-pyridin-2-yl)-4-hydroxy-pyrrolidine-2-carboxylic acid (5-tert-butyl-isoxazol-3-yl)-amide] | 1.35 |
| O=C(Nc1nc(-c2ccccc2)ns1)[C@@H]1C[C@H](O)CN1c1ccc(C(F)(F)F)cn1 [(2S,4S)-4-Hydroxy-1-(5-trifluoromethyl-pyridin-2-yl)-pyrrolidine-2-carboxylic acid (3-phenyl-1,2,4-thiadiazol-5-yl)-amide] | 18.4 |
| CC(C)(C)c1cc(NC(=O)[C@@H]2C[C@H](O)CN2c2ccc(C(F)(F)F)cn2)no1 [(2S,4S)-4-Hydroxy-1-(5-trifluoromethyl-pyridin-2-yl)-pyrrolidine-2-carboxylic acid (5-tert-butyl-isoxazol-3-yl)-amide] | 27.9 |
| CC(C)(C)c1cc(NC(=O)[C@@H]2C[C@H](O)CN2C2CCOCC2)on1 [(2S,4S)-4-Hydroxy-1-(tetrahydro-pyran-4-yl)-pyrrolidine-2-carboxylic acid (3-tert-butyl-isoxazol-5-yl)-amide] | 59 |
| CC(C)(C)c1nc(NC(=O)[C@@H]2C[C@H](O)CN2CC2CCOCC2)sc1C#N [(2S,4S)-4-Hydroxy-1-(tetrahydro-pyran-4-ylmethyl)-pyrrolidine-2-carboxylic acid (4-tert-butyl-5-cyano-thiazol-2-yl)-amide] | 380 |
| CC(C)N1C[C@@H](O)C[C@H]1C(=O)Nc1cc(C(C)(C)C)no1 [(2S,4S)-4-Hydroxy-1-isopropyl-pyrrolidine-2-carboxylic acid (3-tert-butyl-isoxazol-5-yl)-amide] | 421 |
| O=C(Nc1ccc(C(F)(F)F)cn1)[C@H]1CCCN1c1ccc(C(F)(F)F)cc1 [(R)-1-(4-Trifluoromethyl-phenyl)-pyrrolidine-2-carboxylic acid (5-trifluoromethyl-pyridin-2-yl)-amide] | 70.7 |
| CC(C)(C)c1nnc(NC(=O)[C@@H]2CCCN2C(=O)N2CCS(=O)(=O)CC2)s1 [(S)-1-(1,1-Dioxo-1l^6-thiomorpholine-4-carbonyl)-pyrrolidine-2-carboxylic acid (5-tert-butyl-1,3,4-thiadiazol-2-yl)-amide] | 436 |
| CC(C)(C)c1cc(NC(=O)[C@@H]2CCC(=O)N2c2cccc(F)c2F)on1 [(S)-1-(2,3-Difluoro-phenyl)-5-oxo-pyrrolidine-2-carboxylic acid (3-tert-butyl-isoxazol-5-yl)-amide] | 261 |
| CCC(C)CN1CCC[C@H]1C(=O)Nc1cc(C(C)(C)C)no1 (stereo partly drawn) [(S)-1-(2-Methyl-butyl)-pyrrolidine-2-carboxylic acid (3-tert-butyl-isoxazol-5-yl)-amide] | 0.116 |
| CC(C)(C)c1cc(NC(=O)[C@@H]2CCC(=O)N2c2ccc(Cl)c(Cl)c2)on1 [(S)-1-(3,4-Dichloro-phenyl)-5-oxo-pyrrolidine-2-carboxylic acid (3-tert-butyl-isoxazol-5-yl)-amide] | 16.1 |
| CC(C)(C)c1cc(NC(=O)[C@@H]2CCC(=O)N2c2ccc(Cl)c(Cl)c2)no1 [(S)-1-(3,4-Dichloro-phenyl)-5-oxo-pyrrolidine-2-carboxylic acid (5-tert-butyl-isoxazol-3-yl)-amide] | 49.7 |
| CC(C)(C)c1cc(NC(=O)[C@@H]2CCCN2Cc2ccc(F)c(F)c2)on1 [(S)-1-(3,4-Difluoro-benzyl)-pyrrolidine-2-carboxylic acid (3-tert-butyl-isoxazol-5-yl)-amide] | 0.208 |

| SMILES | EC50 [nM] |
| --- | --- |
| CC(C)(C)c1cc(NC(=O)[C@@H]2CCC(=O)N2c2ccc(F)c(F)c2)on1 [(S)-1-(3,4-Difluoro-phenyl)-5-oxo-pyrrolidine-2-carboxylic acid (3-tert-butyl-isoxazol-5-yl)-amide] | 16 |
| CC(C)(C)c1cc(NC(=O)[C@@H]2CCC(=O)N2c2ccc(F)c(F)c2)no1 [(S)-1-(3,4-Difluoro-phenyl)-5-oxo-pyrrolidine-2-carboxylic acid (5-tert-butyl-isoxazol-3-yl)-amide] | 64.2 |
| CC(C)(C)c1cc(NC(=O)[C@@H]2CCCN2c2ncc(Cl)cc2Cl)on1 [(S)-1-(3,5-Dichloro-pyridin-2-yl)-pyrrolidine-2-carboxylic acid (3-tert-butyl-isoxazol-5-yl)-amide] | 0.135 |
| CC(C)(C)c1cc(NC(=O)[C@@H]2CCC(=O)N2c2ccc(F)c(Cl)c2)on1 [(S)-1-(3-Chloro-4-fluoro-phenyl)-5-oxo-pyrrolidine-2-carboxylic acid (3-tert-butyl-isoxazol-5-yl)-amide] | 26.7 |
| CC(C)(C)c1cc(NC(=O)[C@@H]2CCC(=O)N2c2ccc(F)c(Cl)c2)no1 [(S)-1-(3-Chloro-4-fluoro-phenyl)-5-oxo-pyrrolidine-2-carboxylic acid (5-tert-butyl-isoxazol-3-yl)-amide] | 59.3 |
| CC(C)(C)c1cc(NC(=O)[C@@H]2CC(=O)CN2c2ncc(C(F)(F)F)cc2Cl)no1 [(S)-1-(3-Chloro-5-trifluoromethyl-pyridin-2-yl)-4-oxo-pyrrolidine-2-carboxylic acid (5-tert-butyl-isoxazol-3-yl)-amide] | 40.2 |
| CC(C)(C)c1cc(NC(=O)[C@@H]2CCCN2c2ncc(C(F)(F)F)cc2Cl)on1 [(S)-1-(3-Chloro-5-trifluoromethyl-pyridin-2-yl)-pyrrolidine-2-carboxylic acid (3-tert-butyl-isoxazol-5-yl)-amide] | 0.055 |
| CC(C)(C)c1csc(NC(=O)[C@@H]2CCCN2c2ncc(C(F)(F)F)cc2Cl)n1 [(S)-1-(3-Chloro-5-trifluoromethyl-pyridin-2-yl)-pyrrolidine-2-carboxylic acid (4-tert-butyl-thiazol-2-yl)-amide] | 1.95 |
| CC(C)(C)c1cc(NC(=O)[C@@H]2CCCN2c2ncc(C(F)(F)F)cc2Cl)no1 [(S)-1-(3-Chloro-5-trifluoromethyl-pyridin-2-yl)-pyrrolidine-2-carboxylic acid (5-tert-butyl-isoxazol-3-yl)-amide] | 0.08 |
| CC(C)(C)c1cc(NC(=O)[C@@H]2CCC(=O)N2c2cccc(Cl)c2)on1 [(S)-1-(3-Chloro-phenyl)-5-oxo-pyrrolidine-2-carboxylic acid (3-tert-butyl-isoxazol-5-yl)-amide] | 203 |
| COc1ccc(N2C(=O)CC[C@H]2C(=O)Nc2cc(C(C)(C)C)no2)cc1F [(S)-1-(3-Fluoro-4-methoxy-phenyl)-5-oxo-pyrrolidine-2-carboxylic acid (3-tert-butyl-isoxazol-5-yl)-amide] | 314 |
| CC(C)(C)c1cc(NC(=O)[C@@H]2CCC(=O)N2c2ncc(C(F)(F)F)cc2F)on1 [(S)-1-(3-Fluoro-5-trifluoromethyl-pyridin-2-yl)-5-oxo-pyrrolidine-2-carboxylic acid (3-tert-butyl-isoxazol-5-yl)-amide] | 5 |
| CC(C)(C)c1cc(NC(=O)[C@@H]2CCC(=O)N2c2cccc(F)c2)on1 [(S)-1-(3-Fluoro-phenyl)-5-oxo-pyrrolidine-2-carboxylic acid (3-tert-butyl-isoxazol-5-yl)-amide] | 357 |
| CC(C)(C)c1cc(NC(=O)[C@@H]2CCCN2CCCO)on1 [(S)-1-(3-Hydroxy-propyl)-pyrrolidine-2-carboxylic acid (3-tert-butyl-isoxazol-5-yl)-amide] | 28.6 |
| CC(C)(C)c1nnc(NC(=O)[C@@H]2CCCN2CCCO)s1 [(S)-1-(3-Hydroxy-propyl)-pyrrolidine-2-carboxylic acid (5-tert-butyl-1,3,4-thiadiazol-2-yl)-amide] | 320 |
| CC(C)(C)c1cc(NC(=O)[C@@H]2CCC(=O)N2c2ncc(C(F)(F)F)cc2Cl)no1 [(S)-1-(3-chloro-5-trifluoromethyl-pyridin-2-yl)-5-oxo-pyrrolidine-2-carboxylic acid (5-tert-butyl-isoxazol-3-yl)-amide] | 6.5 |

Same assay, conditions: CHO cells expressing human CB2R; inhibition of forskolin-stimulated cAMP synthesis; mean; read-out: CB2 CAMP @ EC50 nM (mean)

| SMILES | EC50 [nM] |
| --- | --- |
| CC(C)(C)c1cc(NC(=O)[C@@H]2CCC(=O)N2c2cccc(Cl)c2)no1 [(S)-1-(3-Chloro-phenyl)-5-oxo-pyrrolidine-2-carboxylic acid (5-tert-butyl-isoxazol-3-yl)-amide] | 296 |
| O=C(Nc1nc(-c2ccccc2)ns1)[C@@H]1CCC(=O)N1c1ncc(C(F)(F)F)cc1Cl [(S)-1-(3-chloro-5-trifluoromethyl-pyridin-2-yl)-5-oxo-pyrrolidine-2-carboxylic acid (3-phenyl-1,2,4-thiadiazol-5-yl)-amide] | 0.549 |
